Measured values from patent US6538145B2, “24-hydroxy vitamin D derivatives” (Chugai Seiyaku Kabushiki Kaisha, priority 1998, dated 2003).

Target: T1, vitamin D receptor derived from chick intestine (Gallus gallus, UniProt O42392)
T1 construct: vitamin D receptor derived from chick intestine; from tissue; host or cells: chick intestine
T1 sequence (O42392 1-451): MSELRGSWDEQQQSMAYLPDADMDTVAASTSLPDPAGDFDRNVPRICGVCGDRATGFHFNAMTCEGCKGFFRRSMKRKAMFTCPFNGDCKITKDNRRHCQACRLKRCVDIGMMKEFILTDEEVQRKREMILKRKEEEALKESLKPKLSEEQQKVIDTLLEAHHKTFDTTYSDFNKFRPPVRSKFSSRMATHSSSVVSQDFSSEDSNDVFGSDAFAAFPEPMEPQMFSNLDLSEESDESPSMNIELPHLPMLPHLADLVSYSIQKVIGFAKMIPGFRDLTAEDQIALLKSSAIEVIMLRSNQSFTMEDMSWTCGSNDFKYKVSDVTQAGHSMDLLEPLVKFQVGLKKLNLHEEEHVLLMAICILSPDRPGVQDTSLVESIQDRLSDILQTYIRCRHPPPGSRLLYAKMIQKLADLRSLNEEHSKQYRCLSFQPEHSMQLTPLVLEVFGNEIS
Experiment: Assay for binding to vitamin D receptor (VDR), radio receptor assay (RRA)
Settings: competition with 3H-1α,25-dihydroxyvitamin D3; test compound 1 to 100,000 nM; 4° C. for 3 hours; result in words only
Method: By the radio receptor assay (RRA), compounds 1a and 1b of the present invention were tested for their ability to bind to vitamin D receptor derived from chick intestine.
^3H-1α,25-dihydroxyvitamin D3 was dissolved in ethanol (20 μl) at a concentration of 10,000 dpm. Three test compounds, 1α,25-dihydroxyvitamin D3, compound la and compound 1b, were diluted with ethanol to give concentrations in the range of from 1 to 100,000 nM, respectively.
To each of small tubes, 20 μl of ^3H-1α,25 -dihydroxyvitamin D3 in solution and 50 μl of a test compound (i.e., 1α,25-dihydroxyvitamin D3, compound 1a or compound 1b) in solution were added. A solution of vitamin D receptor was prepared by dissolving 25 mg of VDR in 70 ml of 0.05M phosphate buffer solution containing 0.3 M KCl and 5 mM DTT (dithiothreitol) and 0.5 ml of the resulting solution was added to each tube, followed by mixing. […] To 0.5 ml of the supernatant, 5 ml of liquid scintillator was added for radioactivity measurement. The B/B0 value was calculated from the measurements (B: radioactivity measured in the presence of a test compound, B0: radioactivity measured in the absence of the test compound).

C=C1C(=CC=C2CCCC3(C)C2CCC3C(C)CCC(O)C(C)(C)O)CC(O)C(OCCCO)C1O [Compound 1a, (5Z,7E)-(1R,2R,3R,24S)-2-(3-hydroxypropoxy)-9,10-secocholesta-5,7,10(19)-triene-1,3,24,25-tetraol]
affinity for the vitamin D receptor (B/B0, FIG. 1): show affinity for the vitamin D receptor
